Target: SMARCA2 (Homo sapiens, UniProt P51531)
Assay: MSD SMARCA2 degradation in A549 cell line
Assay type: cell-based
Settings: 24 h; for Dmax: A549, A549 cells; for DC50: A549 cells, read-out: SMARCA2 MSD A549 degradation 24 h: Average external-Abs DC50
Experimental: Cells were seeded into 96-well plates (A549 cells: 2×10^4 cells/well/100 ul media) abd incubated overnight. The next day, 200 nl compound were added into the intermediate plate with Echo (Labcyte 550) from source plate containing a 3-fold serial dilution from top concentration of 1 mM. The culture medium was changed with 80 ul of fresh medium and 80 ul of 2× compound solution was added into the well to make a final concentration of 1000 nM, 333.3 nM, 111.1 nM, 37.04 nM, 12.35 nM, 4.115 nM, 1.372 nM, 0.457 nM, 0.152 nM and 0 nM (DMSO). The wells were mixed and then incubated for 24 hours. The media was aspirated from the cultures and 60 ul pre-chilled PIPA lysis buffer (Boston BioProducts BP-115D) with protease/phosphatase inhibitor (Roche 05892791001/Roche 04906837001) was added into the well to lyze the cells for 20 minutes at 4° C. The MSD plate (L15XA) was coated with 40 ul cell lysate and incubated at 4° C. overnight. The next day, the plate was washed three times with TBST (CST #9997S), 150 ul/well. The MSD plates was blocked with 150 ul blocking buffer per well and shaked for 1 hr at RT, 600 rpm. The blocking buffer was 3% Blocker A (MSD, R93BA-4) in TBST. The MSD plate was washed three times with 150 ul/well of TBST and 25 ul/well of detection antibody (Rabbit anti-SMARCA2/BRM antibody, 100 μg/ml, ab223735) was added at final concentration of 1 ug/ml diluted in 1% Blocking buffer and shaken for 1 hour at RT, 600 rpm. The MSD plate was washed three times with 150 ul/well of TBST and 25 ul/well of SULFO-TAG anti-rabbit antibody (MSD, R32AB-1) was added at final concentration of 1 ug/ml diluted in 1% Blocking buffer and shaken for 1 hour at RT, 600 rpm. The MSD plate was washed three times with 150 ul/well of TBST and 150 ul/well of 2×MSD reading buffer diluted from 4× (MSD, R92TC-2) with water was added. Lastly, the MSD instrument was read.
The letter codes for the percentage of SMARCA2 degradation after 24 hours (Dmax %) include: A (>90% degradation), B (>70-90% degradation), C (50-70% degradation), and D (<50% degradation).

Chain of SMARCA2 (P51531 whole entry): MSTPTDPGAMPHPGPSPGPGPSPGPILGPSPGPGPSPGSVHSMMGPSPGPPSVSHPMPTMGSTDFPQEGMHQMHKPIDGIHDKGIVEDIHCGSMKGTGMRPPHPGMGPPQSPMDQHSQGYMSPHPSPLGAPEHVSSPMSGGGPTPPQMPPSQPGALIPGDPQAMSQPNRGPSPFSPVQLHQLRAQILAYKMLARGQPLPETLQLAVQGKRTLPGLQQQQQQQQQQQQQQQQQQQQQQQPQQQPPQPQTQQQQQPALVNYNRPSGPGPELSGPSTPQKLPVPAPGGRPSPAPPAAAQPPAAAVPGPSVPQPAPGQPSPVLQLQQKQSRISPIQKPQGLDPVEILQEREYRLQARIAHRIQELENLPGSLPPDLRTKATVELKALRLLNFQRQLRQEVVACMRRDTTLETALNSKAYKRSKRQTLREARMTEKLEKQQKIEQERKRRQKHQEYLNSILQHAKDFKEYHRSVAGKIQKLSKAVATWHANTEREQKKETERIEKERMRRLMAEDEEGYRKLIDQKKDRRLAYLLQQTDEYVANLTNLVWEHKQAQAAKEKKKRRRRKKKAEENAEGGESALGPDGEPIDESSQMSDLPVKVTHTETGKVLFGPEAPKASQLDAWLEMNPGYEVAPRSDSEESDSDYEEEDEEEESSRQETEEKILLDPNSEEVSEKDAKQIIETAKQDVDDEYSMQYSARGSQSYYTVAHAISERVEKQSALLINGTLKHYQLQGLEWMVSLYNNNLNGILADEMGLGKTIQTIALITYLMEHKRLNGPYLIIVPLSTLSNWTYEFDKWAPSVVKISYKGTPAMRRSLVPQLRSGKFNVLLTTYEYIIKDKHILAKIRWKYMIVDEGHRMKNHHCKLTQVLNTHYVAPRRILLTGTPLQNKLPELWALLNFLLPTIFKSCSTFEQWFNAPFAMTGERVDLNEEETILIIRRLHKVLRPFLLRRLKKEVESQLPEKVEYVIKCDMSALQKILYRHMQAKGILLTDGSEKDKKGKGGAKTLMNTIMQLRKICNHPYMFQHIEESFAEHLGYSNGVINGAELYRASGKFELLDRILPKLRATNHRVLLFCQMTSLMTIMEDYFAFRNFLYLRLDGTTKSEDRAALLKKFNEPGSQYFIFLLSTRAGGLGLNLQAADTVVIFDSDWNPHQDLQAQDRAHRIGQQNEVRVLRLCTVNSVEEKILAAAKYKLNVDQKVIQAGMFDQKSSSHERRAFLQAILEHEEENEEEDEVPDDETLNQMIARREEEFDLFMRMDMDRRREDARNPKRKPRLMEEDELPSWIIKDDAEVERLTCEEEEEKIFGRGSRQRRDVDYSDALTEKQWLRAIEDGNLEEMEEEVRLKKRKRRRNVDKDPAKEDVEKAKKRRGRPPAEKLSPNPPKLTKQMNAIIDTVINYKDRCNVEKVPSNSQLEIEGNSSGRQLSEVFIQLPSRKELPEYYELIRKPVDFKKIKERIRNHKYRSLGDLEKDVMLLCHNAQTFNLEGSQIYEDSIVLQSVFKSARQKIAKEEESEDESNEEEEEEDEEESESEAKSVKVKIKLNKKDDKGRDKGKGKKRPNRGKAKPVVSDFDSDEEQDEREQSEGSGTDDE

Dmax | DC50 | SMILES
< 50% | > 1 µM | O=C1CCC(n2c(=O)oc3c(CCCOC4CCN(Cc5ccc(C#Cc6cc(NC(=O)Nc7cc(F)ncc7CO)ccn6)cc5)CC4)cccc32)C(=O)N1 (centres unmarked) [I-309]
> 90% | 0.1 to 0.5 µM | Cc1ncsc1-c1ccc(CNC(=O)[C@@H]2C[C@@H](O)CN2C(=O)[C@@H](NC(=O)[C@H]2CC[C@H](c3ccc(CN4CCC(Cn5cc(-c6cc(-c7ccccc7O)nnc6N)cn5)CC4)cc3)CC2)C(C)(C)C)cc1 [I-380]
50 to 70% | 0.501 to 1 µM | Cc1ncsc1-c1ccc(CNC(=O)[C@@H]2C[C@@H](O)CN2C(=O)[C@@H](NC(=O)C2CC3(CCN(CCN4CCC(Cn5cc(-c6cc(-c7ccccc7O)nnc6N)cn5)CC4)CC3)C2)C(C)(C)C)cc1 [I-381]
< 50% | > 1 µM | Cc1ncsc1-c1ccc(CNC(=O)[C@@H]2C[C@@H](O)CN2C(=O)[C@@H](NC(=O)CCN2CCC(n3cc(-c4cc(-c5ccccc5O)nnc4N)cn3)CC2)C(C)(C)C)cc1 [I-458]
< 50% | > 1 µM | CN(Cc1ccc(C#Cc2cc(NC(=O)Nc3cc(F)ncc3CO)ccn2)cc1)C1CCN(C(=O)c2cccc3c2n(C)c(=O)n3C2CCC(=O)NC2=O)CC1 (centres unmarked) [I-311]
< 50% | > 1 µM | Cn1c(=O)n(C2CCC(=O)NC2=O)c2cccc(CCCOC3CCN(Cc4cccc(C#Cc5cc(NC(=O)Nc6cc(F)ncc6CO)ccn5)c4)CC3)c21 (centres unmarked) [I-315]
< 50% | > 1 µM | Cc1ncsc1-c1ccc(CNC(=O)[C@@H]2C[C@@H](O)CN2C(=O)[C@@H](NC(=O)CCCNCc2cccc(C#Cc3cc(NC(=O)Nc4cc(F)ncc4CO)ccn3)c2)C(C)(C)C)cc1 [I-488]
< 50% | > 1 µM | Cn1c(=O)n(C2CCC(=O)NC2=O)c2ccc(CCCOCCCCN3CCN(Cc4ccc(C#Cc5cc(NC(=O)Nc6cc(F)ncc6CO)ccn5)cc4)CC3)cc21 (centres unmarked) [I-306]
70 to 90% | 0.501 to 1 µM | Cc1ncsc1-c1ccc(CNC(=O)[C@@H]2C[C@@H](O)CN2C(=O)[C@@H](NC(=O)[C@H]2CC[C@H](N3CCC(N4CCC(n5cc(-c6cc(-c7ccccc7O)nnc6N)cn5)CC4)CC3)CC2)C(C)(C)C)cc1 [I-400, (2S,4R)-1-((S)-2-((1r,4S)-4-(4-(4-(3-amino-6-(2-hydroxyphenyl)pyridazin-4-yl)-1H-pyrazol-1-yl)-[1,4′-bipiperidin]-1′-yl)cyclohexanecarboxamido)-3,3-dimethylbutanoyl)-4-hydroxy-N-(4-(4-methylthiazol-5-yl)benzyl)pyrrolidine-2-carboxamide]
< 50% | > 1 µM | Cn1c(=O)n(C2CCC(=O)NC2=O)c2cccc(CN3CCC(OC4CCN(Cc5cccc(C#Cc6cc(NC(=O)Nc7cc(F)ncc7CO)ccn6)c5)CC4)CC3)c21 (centres unmarked) [I-313]
< 50% | > 1 µM | Cc1ncsc1-c1ccc(CNC(=O)[C@@H]2C[C@@H](O)CN2C(=O)[C@@H](NC(=O)CCCN(C)Cc2ccc(N3CCN(c4cc(-c5ccccc5O)nnc4N)CC3)cc2)C(C)(C)C)cc1 [I-464]
< 50% | > 1 µM | CN(CCCOCCCc1cccc2c1n(C)c(=O)n2C1CCC(=O)NC1=O)Cc1cccc(C#Cc2cc(NC(=O)Nc3cc(F)ncc3CO)ccn2)c1 (centres unmarked) [I-312]
 | > 1 µM | CC(C)(C)[C@H](NC(=O)[C@H]1CC2(C1)C[C@H](N1CCC(c3cnc(N4C5CCC4CN(c4cc(-c6ccccc6O)nnc4N)C5)nc3)CC1)C2)C(=O)N1C[C@H](O)C[C@H]1C(=O)NOc1ccc(-c2ccccc2F)cc1 (stereo partly drawn) [I-538, (2S,4R)-1-[(2S)-2-[[2-[4-[2-[3-[3-amino-6-(2-hydroxyphenyl)pyridazin-4-yl]-3,8-diazabicyclo[3.2.1]octan-8-yl]pyrimidin-5-yl]-1-piperidyl]spiro[3.3]heptane-6-carbonyl]amino]-3,3-dimethyl-butanoyl]-N-[4-(2-fluorophenyl)phenoxy]-4-hydroxy-pyrrolidine-2-carboxamide]
> 90% | 0.1 to 0.5 µM | Cc1ncsc1-c1ccc(CNC(=O)[C@@H]2C[C@@H](O)CN2C(=O)[C@@H](NC(=O)[C@H]2CC[C@@H](c3ccc(CN4CCC(Cn5cc(-c6cc(-c7ccccc7O)nnc6N)cn5)CC4)cc3)CC2)C(C)(C)C)cc1 [I-379]
< 50% | > 1 µM | Cc1ncsc1-c1ccc(CNC(=O)[C@@H]2C[C@@H](O)CN2C(=O)[C@@H](NC(=O)CNCc2cccc(C#Cc3cc(NC(=O)Nc4cc(F)ncc4CO)ccn3)c2)C(C)(C)C)cc1 [I-487, (2S,4R)-1-((S)-2-(2-((3-((4-(3-(2-fluoro-5-(hydroxymethyl)pyridin-4-yl)ureido)pyridin-2-yl)ethynyl)benzyl)amino)acetamido)-3,3-dimethylbutanoyl)-4-hydroxy-N-(4-(4-methylthiazol-5-yl)benzyl)pyrrolidine-2-carboxamide]
< 50% | > 1 µM | Cc1ncsc1-c1ccc(CNC(=O)[C@@H]2C[C@@H](O)CN2C(=O)[C@@H](NC(=O)CCCCCNCc2ccc(C#Cc3cc(NC(=O)Nc4cc(F)ncc4CO)ccn3)cc2)C(C)(C)C)cc1 [I-493]
< 50% | > 1 µM | Cc1ncsc1-c1ccc(CNC(=O)[C@@H]2C[C@@H](O)CN2C(=O)[C@@H](NC(=O)CCN(C)Cc2ccc(N3CCN(c4cc(-c5ccccc5O)nnc4N)CC3)cc2)C(C)(C)C)cc1 [I-463]
 | 0.1 to 0.5 µM | Cc1ncsc1-c1ccc(CNC(=O)[C@@H]2C[C@@H](O)CN2C(=O)[C@@H](NC(=O)[C@H]2C[C@]3(C[C@H](CN(C)Cc4cnc(N5C6CCC5CN(c5cc(-c7ccccc7O)nnc5N)C6)nc4)C3)C2)C(C)(C)C)cc1 (some centres unmarked) [I-443]

SMILES | Dmax | DC50
Cc1ncsc1-c1ccc(CNC(=O)[C@@H]2C[C@@H](O)CN2C(=O)[C@@H](NC(=O)CCCN(C)CC#Cc2cnc(N3C4CCC3CN(c3cc(-c5ccccc5O)nnc3N)C4)nc2)C(C)(C)C)cc1 [I-497] | < 50% | > 1 µM
Cc1ncsc1-c1ccc(CNC(=O)[C@@H]2C[C@@H](O)CN2C(=O)[C@@H](NC(=O)[C@H]2C[C@@H](CN3CCC(c4cnc(N5C6CCC5CN(c5cc(-c7ccccc7O)nnc5N)C6)nc4)CC3)C2)C(C)(C)C)cc1 [I-374] | 70 to 90% | 0.1 to 0.5 µM
Cc1ncsc1-c1ccc(CNC(=O)[C@@H]2C[C@@H](O)CN2C(=O)C(NC(=O)C2(F)CC2)C2CCC(N(C)CCCCCc3cnc(N4C5CCC4CN(c4cc(-c6ccccc6O)nnc4N)C5)nc3)CC2)cc1 (some centres unmarked) [I-519] | < 50% | > 1 µM
Cc1ncsc1-c1ccc(CNC(=O)[C@@H]2C[C@@H](O)CN2C(=O)[C@@H](NC(=O)[C@H]2CC[C@H](N3CC(c4cnc(N5C6CCC5CN(c5cc(-c7ccccc7O)nnc5N)C6)nc4)C3)CC2)C(C)(C)C)cc1 [I-393] | > 90% | 0.1 to 0.5 µM
Cc1ncsc1-c1ccc(CNC(=O)[C@@H]2C[C@@H](O)CN2C(=O)[C@@H](NC(=O)C2CC3(C2)CC(N(C)Cc2cnc(N4C5CCC4CN(c4cc(-c6ccccc6O)nnc4N)C5)nc2)C3)C(C)(C)C)cc1 (some centres unmarked) [I-416] | > 90% | 0.1 to 0.5 µM
Cc1ncsc1-c1ccc(CNC(=O)[C@@H]2C[C@@H](O)CN2C(=O)[C@@H](NC(=O)C2CC3(C2)CC(N2CCC(c4cnc(N5C6CCC5CN(c5cc(-c7ccccc7O)nnc5N)C6)nc4)CC2)C3)C(C)(C)C)cc1 (some centres unmarked) [I-414] | > 90% | 0.1 to 0.5 µM
Nc1nnc(-c2ccccc2O)cc1N1CC2CCC(C1)N2c1ncc(C2CCN(CCCCCCNC(=O)COc3ccc4c(c3)CCCN4C(=O)CCl)CC2)cn1 [I-529] | < 50% | > 1 µM
Cc1ncsc1-c1ccc(CNC(=O)[C@@H]2C[C@@H](O)CN2C(=O)[C@@H](NC(=O)[C@H]2CC3(C[C@H](CN4CCC(c5cnc(N6C7CCC6CN(c6cc(-c8ccccc8O)nnc6N)C7)nc5)CC4)C3)C2)C(C)(C)C)cc1 (some centres unmarked) [I-426] | > 90% | 0.1 to 0.5 µM
Nc1nnc(-c2ccccc2O)cc1N1CC2CCC(C1)N2c1ncc(C2CCN(CCCCCCOc3ccc(Oc4ccc(N(Cc5ccccc5)C(=O)CCl)cc4)cc3)CC2)cn1 [I-531] | < 50% | > 1 µM
Cc1ncsc1-c1ccc(CNC(=O)[C@@H]2C[C@@H](O)CN2C(=O)[C@@H](NC(=O)C23CCC(CN(C)Cc4cnc(N5C6CCC5CN(c5cc(-c7ccccc7O)nnc5N)C6)nc4)(CC2)CC3)C(C)(C)C)cc1 [I-429] | 70 to 90% | 0.1 to 0.5 µM
Nc1nnc(-c2ccccc2O)cc1N1CC2CCC(C1)N2c1ncc(C2CCN(CCCCCCCCCCOc3ccc(Oc4ccc(N(Cc5ccccc5)C(=O)CCl)cc4)cc3)CC2)cn1 [I-533, N-(4-(4-((10-(4-(2-(3-(3-amino-6-(2-hydroxyphenyl)pyridazin-4-yl)-3,8-diazabicyclo[3.2.1]octan-8-yl)pyrimidin-5-yl)piperidin-1-yl)decyl)oxy)phenoxy)phenyl)-N-benzyl-2-chloroacetamide] | < 50% | > 1 µM

Reference: patent US12624044B2, “SMARCA degraders and uses thereof” (Kymera Therapeutics, Inc., priority 2019, dated 2026)
